Consider two compounds from ChEMBL document CHEMBL3774310, “Discovery of antitumor anthra[2,3-b]furan-3-carboxamides: Optimization of synthesis and evaluation of antitumor properties” (Eur J Med Chem, 2016).

One data set concerns the target Aurora kinase C (Homo sapiens, UniProt Q9UQB9). In words: Inhibition of full length human N-terminal GST-HIS6-tagged Aurora C expressed in sf9 cells by flashplate based radiometric 33pan-quinase assay.
The subject of data set [1] is P388. In words: Antitumor activity against mouse P388 cells transplanted in DBA2/BDF1 mouse assessed as mean life span at 40 mg/kg, ip dosed daily for 5 days relative to control. Type of data set: functional.
Data set [2] deals with P388. Description: Antitumor activity against mouse P388 cells transplanted in DBA2/BDF1 mouse assessed as mean life span at 20 mg/kg, ip dosed daily for 5 days (reference value: 9.6 +/- 0.5 day). The data set is classed as functional.
Another data set deals with Mus musculus. Description: Toxicity in DBA2/BDF1 mouse transplanted with mouse P388 cells assessed as spleen mass at 50 mg/kg, ip dosed daily for 5 days (reference value: 142 mg). The data set is classed as organism-based. The note with it: in vivo, 120 h.
Data set [3] addresses Serine/threonine-protein kinase pim-1 (Homo sapiens, UniProt P11309). In words: Inhibition of full length human N-terminal GST-HIS6-tagged PIM1 expressed in sf9 cells by flashplate based radiometric 33pan-quinase assay.
Data set [4] has as its target Fibroblast growth factor receptor 1 (Homo sapiens, UniProt P11362, V561M). In words: Inhibition of human FGF-R1 V561M mutant expressed in sf9 cells by flashplate based radiometric 33pan-quinase assay.
The target in data set [5] is MAP kinase-interacting serine/threonine-protein kinase 1 (Homo sapiens, UniProt Q9BUB5). Description: Inhibition of human MKNK1 by flashplate based radiometric 33pan-quinase assay.
MAP kinase-interacting serine/threonine-protein kinase 1, sequence (Q9BUB5 whole entry): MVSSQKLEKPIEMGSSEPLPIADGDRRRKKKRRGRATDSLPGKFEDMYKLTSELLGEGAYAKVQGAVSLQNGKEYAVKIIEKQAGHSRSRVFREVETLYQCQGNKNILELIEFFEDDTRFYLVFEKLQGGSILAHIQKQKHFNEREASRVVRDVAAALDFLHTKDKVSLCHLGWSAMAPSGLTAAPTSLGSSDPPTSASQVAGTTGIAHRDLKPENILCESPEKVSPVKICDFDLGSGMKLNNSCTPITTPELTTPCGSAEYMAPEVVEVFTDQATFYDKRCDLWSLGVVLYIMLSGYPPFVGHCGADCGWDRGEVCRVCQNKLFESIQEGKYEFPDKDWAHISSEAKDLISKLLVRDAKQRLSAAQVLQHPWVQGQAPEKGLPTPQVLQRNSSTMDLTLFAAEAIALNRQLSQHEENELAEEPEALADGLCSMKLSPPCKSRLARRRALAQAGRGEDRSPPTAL
In data set [6] the test system is P388. In words: Antitumor activity against mouse P388 cells transplanted in DBA2/BDF1 mouse assessed as mean life span at 50 mg/kg, ip dosed daily for 5 days relative to control. Type of data set: functional.
The subject of a further data set is L1210. In words: cells. The settings on record: Mus musculus, L1210, 48 h.
Another data set is described as follows: cells. The settings on record: Homo sapiens, HCT-116, 72 h.
Another data set has as its system HeLa. In words: Antiproliferative activity against human HeLa cells after 72 hrs by MTT assay. The data set is classed as functional, cell-based. Background: Tetrazolium assays rely on reduction of a dye to a coloured formazan, in cell work by metabolically active cells.
For a further data set, the system named is K562. In words: cells. The settings on record: Homo sapiens, K562, 72 h.

Bounds are passed on as bounds.

Fibroblast growth factor receptor 1, sequence (P11362 22-822 V561M limits assumed): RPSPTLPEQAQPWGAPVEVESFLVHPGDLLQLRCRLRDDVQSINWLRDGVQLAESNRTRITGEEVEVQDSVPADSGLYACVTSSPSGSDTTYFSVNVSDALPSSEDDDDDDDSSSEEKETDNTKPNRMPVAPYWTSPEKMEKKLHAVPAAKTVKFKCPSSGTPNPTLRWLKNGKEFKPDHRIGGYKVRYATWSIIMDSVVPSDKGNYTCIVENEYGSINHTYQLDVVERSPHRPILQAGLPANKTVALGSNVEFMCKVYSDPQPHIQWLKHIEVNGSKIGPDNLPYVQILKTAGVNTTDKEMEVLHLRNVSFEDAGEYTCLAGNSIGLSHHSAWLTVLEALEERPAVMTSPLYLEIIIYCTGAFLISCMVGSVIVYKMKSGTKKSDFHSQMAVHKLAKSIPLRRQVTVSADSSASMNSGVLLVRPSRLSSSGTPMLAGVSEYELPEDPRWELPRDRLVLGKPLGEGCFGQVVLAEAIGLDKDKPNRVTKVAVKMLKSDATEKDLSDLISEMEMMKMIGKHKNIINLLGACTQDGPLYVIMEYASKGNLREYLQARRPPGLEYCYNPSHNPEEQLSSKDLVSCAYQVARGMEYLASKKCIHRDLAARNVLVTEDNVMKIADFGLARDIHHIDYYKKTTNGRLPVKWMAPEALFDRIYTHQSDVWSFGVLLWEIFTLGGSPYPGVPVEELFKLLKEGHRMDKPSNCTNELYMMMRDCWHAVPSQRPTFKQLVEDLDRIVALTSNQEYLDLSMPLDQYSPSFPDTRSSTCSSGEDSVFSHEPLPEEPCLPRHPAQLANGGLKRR
Aurora kinase C, sequence (Q9UQB9 whole entry): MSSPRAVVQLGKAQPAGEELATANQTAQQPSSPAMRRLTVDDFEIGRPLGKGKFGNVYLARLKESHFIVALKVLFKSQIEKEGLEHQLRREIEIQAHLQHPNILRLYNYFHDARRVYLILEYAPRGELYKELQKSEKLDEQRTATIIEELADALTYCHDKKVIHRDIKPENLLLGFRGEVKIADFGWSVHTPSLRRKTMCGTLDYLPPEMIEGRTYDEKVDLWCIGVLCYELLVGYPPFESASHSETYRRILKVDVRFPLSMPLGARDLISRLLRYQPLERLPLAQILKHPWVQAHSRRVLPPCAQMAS
Serine/threonine-protein kinase pim-1, sequence (P11309 whole entry): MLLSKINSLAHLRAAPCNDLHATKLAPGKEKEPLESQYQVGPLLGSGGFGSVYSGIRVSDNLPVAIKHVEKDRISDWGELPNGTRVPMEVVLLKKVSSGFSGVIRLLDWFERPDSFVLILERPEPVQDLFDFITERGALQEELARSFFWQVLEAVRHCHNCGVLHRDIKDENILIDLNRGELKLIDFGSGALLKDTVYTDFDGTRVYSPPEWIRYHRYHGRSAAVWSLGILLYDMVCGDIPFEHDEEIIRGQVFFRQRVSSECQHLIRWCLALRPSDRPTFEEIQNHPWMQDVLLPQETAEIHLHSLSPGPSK
Description for K562: Antiproliferative activity against human K562 cells after 72 hrs by MTT assay
Description for L1210: Antiproliferative activity against mouse L1210 cells after 48 hrs by MTT assay

One may read the IC50 as the concentration that gives 50% inhibition. Consider `CS(=O)(=O)O.Cc1oc2c(O)c3c(c(O)c2c1C(=O)N1CC[C@H](N)C1)C(=O)c1ccccc1C3=O`, for which the IC50 (against Aurora kinase C; in data set [3]; in [4]; in data set [5]) was below 5000 nM each time. In addition, the Activity was 262% in the data set with P388 [1], 21.3 days in the data set on P388 [2] and 87 mg in the data set with Mus musculus.

As to `CS(=O)(=O)O.Cc1oc2c(O)c3c(c(O)c2c1C(=O)N1CC[C@@H](N)C1)C(=O)c1ccccc1C3=O`, the Activity in the data set with P388 [6] turned out to be 178%. Besides, the IC50 with L1210 worked out at 1900 nM; in the data set “cells” it was 1200 nM; with HeLa, 2100 nM; in the data set on K562 it was 1100 nM.
